The experiment has as its target SIK2 (Homo sapiens, UniProt Q9H0K1). Kind of experiment: SIK2 Enzymatic Assay High Version 2 (High ATP). It is filed as biochemical. In a few lines: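 At room temperature, enzyme (6 nM, 2× final) was preincubated with compound for 30 min, then 6 mM ATP and 400 μM HDAC5tide (both 2× final) were added for 2 h. ADP formed was measured by ADP-Glo Max (2 h reagent, 1 h detection) using luminescence.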

[1] abbreviates: enzyme 6 nM, 6 mM ATP and 400 μM HDAC5tide (each 2× final concentration), 30 minutes pre-incubation, 2 hours, ADP-Glo Max luminescence, read-out: SIK2 high ATP IC50 (μM) (Test Example 2).

Read-outs that look alike come from different tables or passages of the source.

Chain of SIK2 (Q9H0K1 whole entry, species assumed): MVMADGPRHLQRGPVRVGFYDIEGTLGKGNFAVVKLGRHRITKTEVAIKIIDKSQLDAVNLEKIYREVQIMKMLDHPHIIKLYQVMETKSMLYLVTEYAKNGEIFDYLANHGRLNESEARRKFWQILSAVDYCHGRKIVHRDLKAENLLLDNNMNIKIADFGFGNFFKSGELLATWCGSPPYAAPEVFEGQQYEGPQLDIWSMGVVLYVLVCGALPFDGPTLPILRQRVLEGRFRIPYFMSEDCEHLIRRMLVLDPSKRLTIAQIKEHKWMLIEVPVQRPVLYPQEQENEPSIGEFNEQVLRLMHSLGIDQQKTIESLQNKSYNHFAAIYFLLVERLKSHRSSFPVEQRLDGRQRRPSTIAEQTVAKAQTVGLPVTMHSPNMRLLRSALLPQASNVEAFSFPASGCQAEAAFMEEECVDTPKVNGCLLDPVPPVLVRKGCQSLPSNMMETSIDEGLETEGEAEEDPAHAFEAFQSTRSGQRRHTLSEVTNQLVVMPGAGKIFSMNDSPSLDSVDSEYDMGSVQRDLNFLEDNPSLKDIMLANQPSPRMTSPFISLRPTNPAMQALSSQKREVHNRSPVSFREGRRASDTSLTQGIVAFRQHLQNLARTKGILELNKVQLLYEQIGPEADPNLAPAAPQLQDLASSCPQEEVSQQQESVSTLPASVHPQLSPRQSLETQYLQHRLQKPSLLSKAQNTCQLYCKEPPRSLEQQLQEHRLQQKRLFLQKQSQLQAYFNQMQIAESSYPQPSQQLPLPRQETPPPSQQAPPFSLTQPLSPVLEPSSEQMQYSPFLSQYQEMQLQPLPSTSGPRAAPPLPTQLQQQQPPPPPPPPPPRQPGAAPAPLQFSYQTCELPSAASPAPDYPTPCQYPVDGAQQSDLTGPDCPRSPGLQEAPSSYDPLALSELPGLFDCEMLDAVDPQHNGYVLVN

As to `Cc1cc(-c2ccn3nc(Nc4cc(C)nc(C)n4)cc3c2)c(OCC2(C(N)=O)CC2)cn1` [Example 313, 1-[[4-[2-[(2,6-dimethylpyrimidin-4-yl)amino]pyrazolo[1,5-a]pyridin-5-yl]-6-methyl-3-pyridyl]oxymethyl]cyclopropanecarboxamide], the IC50 under setting [1] worked out at 0.0138 µM. Regarding `Cc1cc(-c2ccn3nc(Nc4cc(C)nc(C)n4)cc3c2)c(O[C@H]2C[C@@H](N)C2)cn1` [Example 314, 5-[5-(3-aminocyclobutoxy)-2-methyl-4-pyridyl]-N-(2,6-dimethylpyrimidin-4-yl)pyrazolo[1,5-a]pyridin-2-amine], the IC50 under setting [1] was determined as 0.0129 µM.

`Cc1cc(-c2ccn3nc(Nc4cc(C)nc(C)n4)cc3c2)c(OCCC(C)(C)C#N)cn1` [Example 315, 4-[[4-[2-[(2,6-dimethylpyrimidin-4-yl)amino]pyrazolo[1,5-a]pyridin-5-yl]-6-methyl-3-pyridyl]oxy]-2,2-dimethyl-butanenitrile]: the IC50 under setting [1] came to 0.00406 µM. As for `Cc1cc(-c2ccn3nc(Nc4cc(C)c(=O)n(C5CC5)n4)cc3c2)c(OCC(C)(C)C#N)cn1` [Example 316, 3-[[4-[2-[(1-cyclopropyl-5-methyl-6-oxo-pyridazin-3-yl)amino]pyrazolo[1,5-a]pyridin-5-yl]-6-methyl-3-pyridyl]oxy]-2,2-dimethyl-propanenitrile], the IC50 under setting [1] was less than 0.000847 µM. The same measure, in the same setting: with `Cc1cc(-c2ccn3nc(Nc4cc(C)c(=O)n(C5CC5)n4)cc3c2)c(OC[C@H]2OCC[C@@H]2O)cn1` [Example 317, 2-cyclopropyl-6-[[5-[5-[[(2R,3S)-3-hydroxytetrahydrofuran-2-yl]methoxy]-2-methyl-4-pyridyl]pyrazolo[1,5-a]pyridin-2-yl]amino]-4-methyl-pyridazin-3-one] the figure was 0.0017 µM; with `Cc1cc(-c2ccn3nc(Nc4cc(C)c(=O)n(C5CC5)n4)cc3c2)c(O[C@H]2CC[C@H](O)CC2)cn1` [Example 318, 2-cyclopropyl-6-[[5-[5-(4-hydroxycyclohexoxy)-2-methyl-4-pyridyl]pyrazolo[1,5-a]pyridin-2-yl]amino]-4-methyl-pyridazin-3-one], less than 0.000847 µM.

For the molecule `Cc1cc(-c2cc3cc(NC(=O)C4CC4)nn3cn2)c(O[C@H]2C[C@H]3COC[C@@H](C2)N3C)cn1` [Example 319, N-[5-[2-methyl-5-[[(1S,5R)-9-methyl-3-oxa-9-azabicyclo[3.3.1]nonan-7-yl]oxy]-4-pyridyl]pyrazolo[1,5-c]pyrimidin-2-yl]cyclopropanecarboxamide], the midpoint of inhibition, the IC50, lay at 0.00194 µM.

`Cc1cnc(Nc2cn3cc(-c4cc(C)ncc4O[C@H]4C[C@H]5COC[C@@H](C4)N5)ncc3n2)cn1` [Example 320, 6-[2-methyl-5-[[(1S,5R)-3-oxa-9-azabicyclo[3.3.1]nonan-7-yl]oxy]-4-pyridyl]-N-(5-methylpyrazin-2-yl)imidazo[1,2-a]pyrazin-2-amine] came in with a half-inhibitory concentration (IC50) of 0.00102 µM.

The molecule `Cc1cc(-c2cn3cc(Nc4cncc(C)n4)nc3cn2)c(O[C@H]2C[C@H]3COC[C@@H](C2)N3)cn1` [Example 321, 6-[2-methyl-5-[[(1S,5R)-3-oxa-9-azabicyclo[3.3.1]nonan-7-yl]oxy]-4-pyridyl]-N-(6-methylpyrazin-2-yl)imidazo[1,2-a]pyrazin-2-amine] gave an IC50 of less than 0.000847 µM. Take `Cc1cc(-c2cn3cc(Nc4cnn(C)c4)nc3cn2)c(O[C@H]2C[C@H]3COC[C@@H](C2)N3)cn1` [Example 322, 6-[2-methyl-5-[[(1S,5R)-3-oxa-9-azabicyclo[3.3.1]nonan-7-yl]oxy]-4-pyridyl]-N-(1-methylpyrazol-4-yl)imidazo[1,2-a]pyrazin-2-amine]: inhibition was half-maximal at 0.0015 µM (IC50). On to `Cc1cc(-c2ccn3nc(Nc4ccc(S(=O)(=O)NC5CC5)cc4)cc3c2)c(O[C@H]2CC[C@H](O)CC2)cn1` [Example 323, N-cyclopropyl-4-[[5-[5-(4-hydroxycyclohexoxy)-2-methyl-4-pyridyl]pyrazolo[1,5-a]pyridin-2-yl]amino]benzenesulfonamide], for which the IC50 under setting [1] was 0.0273 µM. As for `Cc1cc(-c2ccn3nc(Nc4ccc(S(=O)(=O)N(C)C)cc4)cc3c2)c(O[C@H]2CC[C@H](O)CC2)cn1` [Example 324, 4-[[5-[5-(4-hydroxycyclohexoxy)-2-methyl-4-pyridyl]pyrazolo[1,5-a]pyridin-2-yl]amino]-N,N-dimethyl-benzenesulfonamide], the IC50 under setting [1] was 0.0329 µM.

As to `Cc1cc(-c2ccn3nc(Nc4cc(C)c(C(=O)NC5CC5)c(C)c4)cc3c2)c(OCC(C)(C)O)cn1` [Example 326, N-cyclopropyl-4-[[5-[5-(2-hydroxy-2-methyl-propoxy)-2-methyl-4-pyridyl]pyrazolo[1,5-a]pyridin-2-yl]amino]-2,6-dimethyl-benzamide], the IC50 under setting [1] worked out at 0.0362 µM. `Cc1cc(Nc2cc3cc(-c4cc(CF)ncc4OCC(C)(C)O)ccn3n2)nc(C)n1` [Example 327, 1-[[4-[2-[(2,6-dimethylpyrimidin-4-yl)amino]pyrazolo[1,5-a]pyridin-5-yl]-6-(fluoromethyl)-3-pyridyl]oxy]-2-methyl-propan-2-ol]: the IC50 under setting [1] worked out at 0.0366 µM.

On to `CCc1cc(-c2ccn3nc(Nc4cc(C)nc(C)n4)cc3c2)c(OCC(C)(C)C#N)cn1` [Example 328, 3-[[4-[2-[(2,6-dimethylpyrimidin-4-yl)amino]pyrazolo[1,5-a]pyridin-5-yl]-6-ethyl-3-pyridyl]oxy]-2,2-dimethyl-propanenitrile], for which the IC50 under setting [1] was found to be 0.0381 µM. `Cc1cc(Nc2cc3cc(-c4cc(OC(F)F)ncc4OCC(C)(C)C#N)ccn3n2)nc(C)n1` [Example 329, 3-[[6-(difluoromethoxy)-4-[2-[(2,6-dimethylpyrimidin-4-yl)amino]pyrazolo[1,5-a]pyridin-5-yl]-3-pyridyl]oxy]-2,2-dimethyl-propanenitrile]: under setting [1], the IC50 was 0.00358 µM. `COc1cc(Nc2cc3cc(-c4cc(C)ncc4O[C@H]4CC[C@H](O)CC4)ccn3n2)cc(OC)c1C(=O)NC(C)C` [Example 330, 4-[[5-[5-(4-hydroxycyclohexoxy)-2-methyl-4-pyridyl]pyrazolo[1,5-a]pyridin-2-yl]amino]-N-isopropyl-2,6-dimethoxy-benzamide]: the IC50 under setting [1] stood at 0.028 µM. On to `CNC(=O)c1c(OC)cc(Nc2cc3cc(-c4cc(C)ncc4O[C@H]4CC[C@H](O)CC4)ccn3n2)cc1OC` [Example 331, 4-[[5-[5-(4-hydroxycyclohexoxy)-2-methyl-4-pyridyl]pyrazolo[1,5-a]pyridin-2-yl]amino]-2,6-dimethoxy-N-methyl-benzamide], for which, under setting [1], the IC50 turned out to be 0.0366 µM. Regarding `COc1cc(Nc2cc3cc(-c4cc(C)ncc4O[C@H]4CC[C@H](O)CC4)ccn3n2)cc(OC)c1C(=O)N(C)C` [Example 332, 4-[[5-[5-(4-hydroxycyclohexoxy)-2-methyl-4-pyridyl]pyrazolo[1,5-a]pyridin-2-yl]amino]-2,6-dimethoxy-N,N-dimethyl-benzamide], under setting [1], the IC50 was found to be 0.015 µM.

As for `COc1cc(Nc2cc3cc(-c4cc(C)ncc4O[C@H]4CC[C@H](O)CC4)ccn3n2)cc(OC(F)F)c1C(=O)NC1CC1` [Example 333, N-cyclopropyl-2-(difluoromethoxy)-4-[[5-[5-(4-hydroxycyclohexoxy)-2-methyl-4-pyridyl]pyrazolo[1,5-a]pyridin-2-yl]amino]-6-methoxy-benzamide], the IC50 under setting [1] was 0.0448 µM.

Turning to `Cc1cc(-c2ccn3nc(Nc4cc(C)c(C(=O)NC5CC5)c(C)n4)cc3c2)c(O[C@H]2CC[C@H](O)CC2)cn1` [Example 334, N-cyclopropyl-6-[[5-[5-(4-hydroxycyclohexoxy)-2-methyl-4-pyridyl]pyrazolo[1,5-a]pyridin-2-yl]amino]-2,4-dimethyl-pyridine-3-carboxamide], the IC50 under setting [1] stood at 0.00301 µM. As to `Cc1cc(-c2ccn3nc(Nc4cc(C)c(C(=O)NC5CC5)c(C)n4)cc3c2)c(OCC(C)(C)O)cn1` [Example 335, N-cyclopropyl-6-[[5-[5-(2-hydroxy-2-methyl-propoxy)-2-methyl-4-pyridyl]pyrazolo[1,5-a]pyridin-2-yl]amino]-2,4-dimethyl-pyridine-3-carboxamide], the IC50 under setting [1] was 0.0233 µM. As to `Cc1cc(-c2ccn3nc(Nc4cc(C)nc(C)n4)cc3c2)c(O[C@H]2C[C@H]3COC[C@@H](C2)N3C#N)cn1` [Example 336, (1S,5R)-7-[[4-[2-[(2,6-dimethylpyrimidin-4-yl)amino]pyrazolo[1,5-a]pyridin-5-yl]-6-methyl-3-pyridyl]oxy]-3-oxa-9-azabicyclo[3.3.1]nonane-9-carbonitrile], the IC50 is less than 0.000847 µM. As for `Cc1cc(-c2ccn3nc(Nc4cc(C)c(=O)n(C)n4)cc3c2)c(OC2C[C@H]3COC[C@@H](C2)N3)cn1` (stereo partly drawn) [Example 337, 2,4-dimethyl-6-[[5-[2-methyl-5-[[(1S,5R)-3-oxa-9-azabicyclo[3.3.1]nonan-7-yl]oxy]-4-pyridyl]pyrazolo[1,5-a]pyridin-2-yl]amino]pyridazin-3-one], half-maximal inhibition (IC50) required 0.00148 µM. On the same count and under the same terms, the figure for `Cc1cc(-c2ccn3nc(Nc4nccc(C)c4F)cc3c2)c(O[C@H]2C[C@H]3COC[C@@H](C2)N3)cn1` [Example 338, N-(3-fluoro-4-methyl-2-pyridyl)-5-[2-methyl-5-[[(1S,5R)-3-oxa-9-azabicyclo[3.3.1]nonan-7-yl]oxy]-4-pyridyl]pyrazolo[1,5-a]pyridin-2-amine] is 0.00325 µM.

Turning to `CC(=O)N1[C@@H]2COC[C@H]1C[C@@H](Oc1cnc(C)cc1-c1ccn3nc(NC(=O)C4CC4)cc3c1)C2` [Example 339, N-[5-[5-[[(1S,5R)-9-acetyl-3-oxa-9-azabicyclo[3.3.1]nonan-7-yl]oxy]-2-methyl-4-pyridyl]pyrazolo[1,5-a]pyridin-2-yl]cyclopropanecarboxamide], the IC50 stood at 0.00231 µM. In turn, `COc1cc(Nc2cc3cc(-c4cc(C)ncc4O[C@H]4C[C@H]5COC[C@@H](C4)N5)ccn3n2)cc(OC)c1C(=O)NC(C)C` [Example 340, N-isopropyl-2,6-dimethoxy-4-[[5-[2-methyl-5-[[(1S,5R)-3-oxa-9-azabicyclo[3.3.1]nonan-7-yl]oxy]-4-pyridyl]pyrazolo[1,5-a]pyridin-2-yl]amino]benzamide] gave an IC50 of less than 0.000847 µM.

The record behind these values is patent US20240158392A1 (Janssen Biotech, Inc., priority 2021, published 2024).
